According to the NIST ThermoML archive (doi:10.1016/j.fluid.2016.02.009):

Conditions: Liquid, Vibrating tube method

CC(C)OC(C)C [diisopropyl ether]
Conditions | mass density [kg/m3]
283.15 K, 100 kPa | 733.83
283.15 K, 5000 kPa | 739.6
283.15 K, 10000 kPa | 744.9
283.15 K, 15000 kPa | 749.85
283.15 K, 20000 kPa | 754.49
283.15 K, 25000 kPa | 758.89
283.15 K, 30000 kPa | 763.08
283.15 K, 35000 kPa | 767.08
283.15 K, 40000 kPa | 770.91
283.15 K, 45000 kPa | 774.59
283.15 K, 50000 kPa | 778.13
283.15 K, 55000 kPa | 781.56
283.15 K, 60000 kPa | 784.88
283.15 K, 65000 kPa | 788.07
288.15 K, 100 kPa | 728.69
288.15 K, 5000 kPa | 734.61
288.15 K, 10000 kPa | 740.14
288.15 K, 15000 kPa | 745.3
288.15 K, 20000 kPa | 750.09
288.15 K, 25000 kPa | 754.61
288.15 K, 30000 kPa | 758.9
288.15 K, 35000 kPa | 763.01
288.15 K, 40000 kPa | 766.92
288.15 K, 45000 kPa | 770.68
288.15 K, 50000 kPa | 774.31
288.15 K, 55000 kPa | 777.77
288.15 K, 60000 kPa | 781.16
288.15 K, 65000 kPa | 784.42
293.15 K, 100 kPa | 723.51
293.15 K, 5000 kPa | 729.62
293.15 K, 10000 kPa | 735.37
293.15 K, 15000 kPa | 740.69
293.15 K, 20000 kPa | 745.62
293.15 K, 25000 kPa | 750.29
293.15 K, 30000 kPa | 754.71
293.15 K, 35000 kPa | 758.91
293.15 K, 40000 kPa | 762.93
293.15 K, 45000 kPa | 766.78
293.15 K, 50000 kPa | 770.48
293.15 K, 55000 kPa | 774.06
293.15 K, 60000 kPa | 777.49
293.15 K, 65000 kPa | 780.83
298.15 K, 100 kPa | 718.29
298.15 K, 5000 kPa | 724.67
298.15 K, 10000 kPa | 730.59
298.15 K, 15000 kPa | 736.05
298.15 K, 20000 kPa | 741.13
298.15 K, 25000 kPa | 745.92
298.15 K, 30000 kPa | 750.46
298.15 K, 35000 kPa | 754.77
298.15 K, 40000 kPa | 758.89
298.15 K, 45000 kPa | 762.82
298.15 K, 50000 kPa | 766.6
298.15 K, 55000 kPa | 770.25
298.15 K, 60000 kPa | 773.75
298.15 K, 65000 kPa | 777.14
303.15 K, 100 kPa | 713.03
303.15 K, 5000 kPa | 719.61
303.15 K, 10000 kPa | 725.79
303.15 K, 15000 kPa | 731.48
303.15 K, 20000 kPa | 736.81
303.15 K, 25000 kPa | 741.76
303.15 K, 30000 kPa | 746.43
303.15 K, 35000 kPa | 750.85
303.15 K, 40000 kPa | 755.09
303.15 K, 45000 kPa | 759.12
303.15 K, 50000 kPa | 763
303.15 K, 55000 kPa | 766.7
303.15 K, 60000 kPa | 770.24
303.15 K, 65000 kPa | 773.7
308.15 K, 100 kPa | 707.73
308.15 K, 5000 kPa | 714.61
308.15 K, 10000 kPa | 720.99
308.15 K, 15000 kPa | 726.79
308.15 K, 20000 kPa | 732.2
308.15 K, 25000 kPa | 737.29
308.15 K, 30000 kPa | 742.07
308.15 K, 35000 kPa | 746.63
308.15 K, 40000 kPa | 750.94
308.15 K, 45000 kPa | 755.05
308.15 K, 50000 kPa | 759.01
308.15 K, 55000 kPa | 762.79
308.15 K, 60000 kPa | 766.45
308.15 K, 65000 kPa | 769.97
313.15 K, 100 kPa | 702.38
313.15 K, 5000 kPa | 709.64
313.15 K, 10000 kPa | 716.16
313.15 K, 15000 kPa | 722.17
313.15 K, 20000 kPa | 727.77
313.15 K, 25000 kPa | 732.97
313.15 K, 30000 kPa | 737.92
313.15 K, 35000 kPa | 742.55
313.15 K, 40000 kPa | 746.98
313.15 K, 45000 kPa | 751.2
313.15 K, 50000 kPa | 755.21
313.15 K, 55000 kPa | 759.09
313.15 K, 60000 kPa | 762.83
313.15 K, 65000 kPa | 766.39
318.15 K, 100 kPa | 697.07
318.15 K, 5000 kPa | 704.53
318.15 K, 10000 kPa | 711.3
318.15 K, 15000 kPa | 717.51
318.15 K, 20000 kPa | 723.27
318.15 K, 25000 kPa | 728.67
318.15 K, 30000 kPa | 733.74
318.15 K, 35000 kPa | 738.49
318.15 K, 40000 kPa | 743.01
318.15 K, 45000 kPa | 747.34
318.15 K, 50000 kPa | 751.47
318.15 K, 55000 kPa | 755.41
318.15 K, 60000 kPa | 759.21
318.15 K, 65000 kPa | 762.85
323.15 K, 100 kPa | 691.61
323.15 K, 5000 kPa | 699.42
323.15 K, 10000 kPa | 706.46
323.15 K, 15000 kPa | 712.89
323.15 K, 20000 kPa | 718.83
323.15 K, 25000 kPa | 724.38
323.15 K, 30000 kPa | 729.58
323.15 K, 35000 kPa | 734.45
323.15 K, 40000 kPa | 739.08
323.15 K, 45000 kPa | 743.5
323.15 K, 50000 kPa | 747.72
323.15 K, 55000 kPa | 751.72
323.15 K, 60000 kPa | 755.59
323.15 K, 65000 kPa | 759.26
328.15 K, 100 kPa | 686.17
328.15 K, 5000 kPa | 694.18
328.15 K, 10000 kPa | 701.52
328.15 K, 15000 kPa | 708.19
328.15 K, 20000 kPa | 714.34
328.15 K, 25000 kPa | 720.04
328.15 K, 30000 kPa | 725.37
328.15 K, 35000 kPa | 730.4
328.15 K, 40000 kPa | 735.15
328.15 K, 45000 kPa | 739.67
328.15 K, 50000 kPa | 743.94
328.15 K, 55000 kPa | 748.05
328.15 K, 60000 kPa | 751.94
328.15 K, 65000 kPa | 755.64
333.15 K, 100 kPa | 681
333.15 K, 5000 kPa | 688.97
333.15 K, 10000 kPa | 696.58
333.15 K, 15000 kPa | 703.52
333.15 K, 20000 kPa | 709.85
333.15 K, 25000 kPa | 715.73
333.15 K, 30000 kPa | 721.21
333.15 K, 35000 kPa | 726.36
333.15 K, 40000 kPa | 731.23
333.15 K, 45000 kPa | 735.85
333.15 K, 50000 kPa | 740.18
333.15 K, 55000 kPa | 744.38
333.15 K, 60000 kPa | 748.24
333.15 K, 65000 kPa | 752.02
